# Measured values reported in ChEMBL document CHEMBL1136163, “Conformationally-restricted analogues of efflux pump inhibitors that potentiate the activity of levofloxacin in Pseudomonas aeruginosa” (Bioorg Med Chem Lett, 2003).
# Where a SMILES comes first, the peptide text is derived from it. The star is where a group is joined. βNA = c1ccc2cc(N*)ccc2c1
# Assays:
# [1] = In vivo minimum lethal dose causing lethality to >/=66% of the mice tested i.v.; format: ADME, organism-based; settings: mouse, iv
# Pseudomonas aeruginosa [2] = assay: In vitro minimum concentration of the efflux pump inhibitor required to inhibit the growth of PAM 1723 a strain of Pseudomonas aeruginosa; format: functional
# Pseudomonas aeruginosa [3] = assay: In vitro minimum concentration of the efflux pump inhibitor required to reduce (potentiate) the MIC of fuoroquinolone levofloxacin 8-fold (LVFX); format: functional
# [4] = In vivo minimum lethal dose causing lethality to >/=66% of the mice tested i.p.; format: ADME, organism-based; settings: mouse, ip
# [5] = Clearance measured in rat; format: ADME, organism-based; settings: in vivo, read-out: CLfree (converted)
# [6] = In vivo toxicity in mice i.v.; format: organism-based; settings: mouse, iv
Compound,MLD [1] [mg/kg],MIC (Pseudomonas aeruginosa [2]) [µg/mL],MPC (Pseudomonas aeruginosa [3]) [µg/mL],MLD [4] [mg/kg],clearance [5] [mL/min/kg],LD50 [6] [mg/kg]
NCCO[C@H]1CN[C@H](C(=O)N[C@H](CCc2ccccc2)C(=O)Nc2cnc3ccccc3c2)C1,70,> 512,10,,,
CC(C)C[C@@H](NC(=O)[C@H](N)CCCN)C(=O)Nc1cnc2ccccc2c1,50,,20,300,,
CC(C)(C)c1ccc2ncc(NC(=O)CNC(=O)[C@H](N)CCCN)cc2c1,35,64,5,,,
CN(C(=O)[C@@H](N)CCc1ccccc1)[C@@H](CCCN)CSc1nc2ccccc2s1,25,128,5,,,
CC(C)(C)c1ccc2ncc(NC(=O)[C@H]3C[C@H](CN)CN3)cc2c1,> 150,128,5,,,
NCCC[C@@H](N)C(=O)N[C@H](CCc1ccccc1)C(=O)Nc1cnc2ccccc2c1,< 25,> 512,10,200,28.3,< 25
NC[C@@H]1CN[C@@H](C(=O)N[C@H](CCc2ccccc2)C(=O)Nc2cnc3ccccc3c2)C1,50,> 512,5,,,
C[C@H](N)C(=O)N[C@H](CCc1ccccc1)C(=O)Nc1cnc2ccccc2c1,125,,>40,,,
CN(C(=O)[C@@H](N)Cc1ccccc1)[C@@H](CCCN)C(=O)Nc1ccc2ccccc2c1,< 25,256,5,,,
N=C(N)NCCC[C@H](NC(=O)[C@@H](N)Cc1ccccc1)C(=O)Nc1ccc2ccccc2c1 [PABETAN] (H-Phe-Arg-βNA),< 25,> 512,10,,,< 25
C[C@H]1COc2c(N3CCN(C)CC3)c(F)cc3c(=O)c(C(=O)O)cn1c23.C[C@H]1COc2c(N3CCN(C)CC3)c(F)cc3c(=O)c(C(=O)O)cn1c23.O [LEVOFLOXACIN],> 100,,,,,> 100
NC[C@@H]1CN[C@@H](C(=O)N[C@H](CCc2ccccc2)C(=O)Nc2ccc3ncccc3c2)C1,> 100,> 512,10,,48.3,
